Experimental data from patent US8569378B2, “p27 protein inducer” (Chugai Seiyaku Kabushiki Kaisha, priority 2007, dated 2013).

System: p27 protein
Test: Quantification of p27 protein by ELISA (p27 protein-inducing activity, EC50)
Type: cell-based, human
Conditions: NCI-H460 cells, 48 hours, p27 sandwich ELISA; Table 1-1
Method: The p27 protein-inducing activities of the compounds or salts listed in Tables 1-1, 1-2 and 2 below were measured as follows.
Preparation of Cell Lysate:
NCI-H460 human non-small cell lung cancer cells (ATCC HTB-177) were plated in 6-well plates at 2×10^5 cells/well and incubated overnight. Then, the test substance was added to the medium to a final concentration of 10000 nmol/L, 3000 nmol/L, 100 nmol/L, 30 nmol/L, 10 nmol/L, 3 nmol/L, 1 nmol/L, 0.3 nmol/L, 0.1 nmol/L, 0.03 nmol/L or 0.01 nmol/L and the cells were incubated at 37° C. in 5% CO2 for 48 hours. 150 μL of Cell Lysis Buffer (catalog no. 9803, Cell Signaling) which had been diluted to 1-fold concentration (1 mM PMSF was added immediately before use) was added, and the mixture was allowed to stand on ice for 10 minutes. The Cell Lysis Buffer in which cells were lysed was collected together with cells with a scraper and transferred to a new tube. It was centrifuged at 15000 rpm for 10 minutes at 4° C. and the supernatant was then transferred to a new tube.
Quantification by Sandwich ELISA:
Anti-p27 monoclonal antibody (catalog no. 71-9600, Zymed) was diluted to 5 μg/mL in 50 mM carbonate coating buffer (0.4 g/L NaCO3, 0.73 g/L NaHCO3 and 0.04 g/L NaN3 in distilled water), and it was then added at 50 μL/well and allowed to stand overnight at 4° C. to bind the antibody. After washing three times with PBS, 200 μL of blocking solution (0.2% I-Block in PBS) was added to each well. After 1 hour of incubation at room temperature, washing with PBS-T (0.05% Tween 20 in PBS) was performed three times. The sample and recombinant p27 protein standard were serially diluted in Cell Lysis Buffer (catalog no. 9803, Cell Signaling) which had been diluted to 1-fold concentration (1 mM PMSF was added immediately before use), and it was then added at 100 μL/well. After 1 hour of incubation at room temperature, washing with 200 μL of PBS-T was performed three times. HRP-labeled anti-p27 antibody (product no. 610243, BD Transdution Laboratories) was diluted 1:2500 (i.e. to 0.1 μg/mL) in 0.2% I-Block/0.05% PBS-T, and it was then added at 100 μL/well. After 1 hour of incubation at room temperature, washing with 200 μL of PBS-T was performed three times. Chromogenic substrate solution (TMB One Solution, catalog no. G7431, Promega) was added at 100 μL/well and allowed to develop a color reaction at room temperature. After stopping the reaction with 50 μL of 1N H2SO4, the absorbance at 450 nm was measured.
Calculation of EC50 Values:
A standard response curve was generated by plotting the amount of p27 protein against the concentration of the test substance. The basal level of response was defined as 0%, while the plateau level where the induction of p27 protein had been maximized was defined as 100%. Finally, the test substance concentration at which 50% induction was achieved was calculated, and it was defined as EC50.

Compound | EC50
CNS(=O)(=O)Nc1cccc(Cc2c(CF)c3cc(Cl)c(OC(=O)N(C)C)cc3oc2=O)c1 [Compound 1j-1-3-2F, Dimethylcarbamic acid 6-chloro-4-fluoromethyl-3-{3-(methylaminosulfonyl)aminobenzyl}-2-oxo-2H-1-benzopyran-7-yl ester] | 31 nM
Cc1c(Cc2cccc(NS(=O)(=O)N(C)C)c2)c(=O)oc2cc(OC(=O)N(C)C)c(Cl)cc12 [Compound 1j-1-3-3, Dimethylcarbamic acid 6-chloro-4-methyl-3-{3-(dimethylaminosulfonyl)aminobenzyl}-2-oxo-2H-1-benzopyran-7-yl ester] | 74 nM
Cc1c(Cc2cccc(NS(N)(=O)=O)c2F)c(=O)oc2cc(OC(=O)N(C)C)ccc12 [Compound 1j-1-4-1, Dimethylcarbamic acid 3-(3-aminosulfonylamino-2-fluoro-benzyl)-4-methyl-2-oxo-2H-1-benzopyran-7-yl ester] | 180 nM
CNS(=O)(=O)Nc1cccc(Cc2c(C)c3ccc(OC(=O)N(C)C)cc3oc2=O)c1F [Compound 1j-1-4-2, Dimethylcarbamic acid 3-(3-methylaminosulfonylamino-2-fluoro-benzyl)-4-methyl-2-oxo-2H-1-benzopyran-7-yl ester] | 78 nM
CNS(=O)(=O)Nc1cccc(Cc2c(CF)c3ccc(OC(=O)N(C)C)cc3oc2=O)c1F [Compound 1j-1-4-2F, Dimethylcarbamic acid 3-(3-methylaminosulfonylamino-2-fluoro-benzyl)-4-fluoromethyl-2-oxo-2H-1-benzopyran-7-yl ester] | 60 nM
CNS(=O)(=O)Nc1cccc(Cc2c(C)c3cc(F)c(OC(=O)N(C)C)cc3oc2=O)c1F [Compound 1j-1-5-2, Dimethylcarbamic acid 6-fluoro-4-methyl-3-{2-fluoro-3-(methylaminosulfonyl)aminobenzyl}-2-oxo-2H-1-benzopyran-7-yl ester] | 210 nM
Cc1c(Cc2cccc(NS(N)(=O)=O)c2)c(=O)oc2cc(OC(=O)N(C)C)c(I)cc12 [Compound 1j-1-7-1, Dimethylcarbamic acid 3-{3-(aminosulfonyl)aminobenzyl}-6-iodo-4-methyl-2-oxo-2H-1-benzopyran-7-yl ester] | 160 nM
CNS(=O)(=O)Nc1cccc(Cc2c(C)c3cc(I)c(OC(=O)N(C)C)cc3oc2=O)c1 [Compound 1j-1-7-2, Dimethylcarbamic acid 6-iodo-4-methyl-3-{3-(methylaminosulfonyl)aminobenzyl}-2-oxo-2H-1-benzopyran-7-yl ester] | 27 nM
CNS(=O)(=O)Nc1cccc(Cc2c(C)c3cc(C)c(OC(=O)N(C)C)cc3oc2=O)c1 [Compound 1j-1-8-2, Dimethylcarbamic acid 6-methyl-4-methyl-3-{3-(methylaminosulfonyl)aminobenzyl}-2-oxo-2H-1-benzopyran-7-yl ester] | 240 nM
CNS(=O)(=O)Nc1cccc(Cc2c(C)c3cc(C#N)c(OC(=O)N(C)C)cc3oc2=O)c1 [Compound 1j-1-9-2, Dimethylcarbamic acid 6-cyano-4-methyl-3-{3-(methylaminosulfonyl)aminobenzyl}-2-oxo-2H-1-benzopyran-7-yl ester] | 4800 nM
Cc1c(Cc2cccc(NS(=O)(=O)NCCC#N)c2)c(=O)oc2cc(OC(=O)N(C)C)c(Cl)cc12 [Compound 1j-1-21-2, Dimethylcarbamic acid 3-(3-(N-(2-cyanoethyl)sulfamoyl)aminobenzyl)-6-chloro-4-methyl-2-oxo-2H-1-benzopyran-7-yl ester] | 150 nM
COCCNS(=O)(=O)Nc1cccc(Cc2c(C)c3cc(Cl)c(OC(=O)N(C)C)cc3oc2=O)c1 [Compound 1j-1-23-2, Dimethylcarbamic acid 3-(3-(N-(2-methoxyethyl)sulfamoyl)aminobenzyl)-6-chloro-4-methyl-2-oxo-2H-1-benzopyran-7-yl ester] | 220 nM

Same assay, conditions: NCI-H460 cells, 48 hours, p27 sandwich ELISA; Table 1-2

Compound | EC50
Cc1c(Cc2ccccc2)c(=O)oc2cc(OC(=O)N(C)C)c(Cl)cc12 [Comp. 2, dimethylcarbamic acid 2-oxo-2H-3-benzyl-4-methyl-6-chloro-1-benzopyran-7-yl ester, reference compound] | 5400 nM
CNS(=O)(=O)Nc1cc(Cc2c(C)c3cc(Cl)c(OC(=O)N(C)C)cc3oc2=O)ccn1 [Compound 1j-1-12-2, Dimethylcarbamic acid 4-methyl-3-{2-(methylaminosulfonyl)aminopyridin-4-ylmethyl}-6-chloro-2-oxo-2H-1-benzopyran-7-yl ester] | 1100 nM
CNS(=O)(=O)Nc1nccc(Cc2c(C)c3cc(F)c(Oc4ncccn4)cc3oc2=O)c1F [Compound 1j-2-17-2, 3-{2-(methylaminosulfonyl)amino-3-fluoropyridin-4-ylmethyl}-4-methyl-6-fluoro-7-(pyrimidin-2-yloxy)-2-oxo-2H-1-benzopyran] | 220 nM
CNS(=O)(=O)Nc1nccc(Cc2c(C)c3cc(Cl)c(Oc4ncccn4)cc3oc2=O)c1F [Compound 1j-2-18-2, 3-{2-(Methylaminosulfonyl)amino-3-fluoropyridin-4-ylmethyl}-4-methyl-6-chloro-7-(pyrimidin-2-yloxy)-2-oxo-2H-1-benzopyran] | 43 nM
CNS(=O)(=O)Nc1nccc(Cc2c(C)c3cc(C)c(Oc4ncccn4)cc3oc2=O)c1F [Compound 1j-2-19-2, 3-{2-(Methylaminosulfonyl)amino-3-fluoropyridin-4-ylmethyl}-4-methyl-6-methyl-7-(pyrimidin-2-yloxy)-2-oxo-2H-1-benzopyran] | 160 nM
CCc1c(Cc2ccnc(NS(=O)(=O)NC)c2F)c(=O)oc2cc(Oc3ncccn3)c(C)cc12 [Compound 1j-2-19-2Me, 3-{2-(Methylaminosulfonyl)amino-3-fluoropyridin-4-ylmethyl}-4-ethyl-6-methyl-7-(pyrimidin-2-yloxy)-2-oxo-2H-1-benzopyran] | 48 nM
CNS(=O)(=O)Nc1cc(Cc2c(C)c3cc(Cl)c(Oc4nccs4)cc3oc2=O)ccn1 [Compound 1j-3-12-2, 3-{2-(Methylaminosulfonyl)aminopyridin-4-ylmethyl}-4-methyl-6-chloro-7-(thiazol-2-yloxy)-2-oxo-2H-1-benzopyran] | 458 nM
CNS(=O)(=O)Nc1nccc(Cc2c(C)c3cc(C)c(Oc4nccs4)cc3oc2=O)c1F [Compound 1j-3-19-2, 3-{2-(Methylaminosulfonyl)amino-3-fluoropyridin-4-ylmethyl}-4-methyl-6-methyl-7-(thiazol-2-yloxy)-2-oxo-2H-1-benzopyran] | 19 nM

Same assay, conditions: NCI-H460 cells, 48 hours, p27 sandwich ELISA; Table 2

Compound | EC50
CNS(=O)(=O)Nc1cccc(Cc2c(C)c3ccc(OC(=O)N(C)C)cc3oc2=O)n1 [Compound 1j-1-13-2, Dimethylcarbamic acid 4-methyl-3-{6-(methylaminosulfonyl)aminopyridin-2-ylmethyl}-2-oxo-2H-1-benzopyran-7-yl ester] | 2500 nM
CNS(=O)(=O)Nc1cc(Cc2c(C)c3cc(Cl)c(Oc4ncccn4)cc3oc2=O)ccn1 [Compound 1j-2-12-2, 3-{2-(Methylaminosulfonyl)aminopyridin-4-ylmethyl}-4-methyl-7-(pyrimidin-2-yloxy)-6-chloro-2-oxo-2H-1-benzopyran] | 1450 nM
CNS(=O)(=O)Nc1nccc(Cc2c(C)c3ccc(Oc4ncccn4)cc3oc2=O)c1F [Compound 1j-2-16-2, 3-{2-(Methylaminosulfonyl)amino-3-fluoropyridin-4-ylmethyl}-4-methyl-7-(pyrimidin-2-yloxy)-2-oxo-2H-1-benzopyran] | 504 nM
CNS(=O)(=O)Nc1cccc(Cc2c(C)c3ccc(Oc4nccs4)cc3oc2=O)c1 [Compound 1j-3-1-2, 3-{3-(Methylaminosulfonyl)aminobenzyl}-4-methyl-7-(thiazol-2-yloxy)-2-oxo-2H-1-benzopyran] | 7100 nM
CNS(=O)(=O)Nc1cccc(Cc2c(C)c3cc(C)c(Oc4nccs4)cc3oc2=O)c1 [Compound 1j-3-8-2, 3-{3-(Methylaminosulfonyl)aminobenzyl}-4-methyl-7-(thiazol-2-yloxy)-6-methyl-2-oxo-2H-1-benzopyran] | 540 nM
